Measurements published in ChEMBL document CHEMBL1201862, “PubChem BioAssay data set” (2004).
The source made the active and inactive calls.

Experiments:
[1] = molecular target: Disintegrin and metalloproteinase domain-containing protein 17 (Homo sapiens, UniProt P78536); experiment: exosite inhibitors of ADAM17, dose response, biochemical (AID 743260)
[2] = ADAM10 protease inhibitors, dose response, selectivity assay for ADAM17 exosite inhibitor project, biochemical, FRET peptide substrate, recombinant human ADAM10 (AID 743259);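 note: ADAM10 enzyme cleaving a FRET peptide substrate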
[3] = cytotoxicity toward Colo320 cells – cell-based, CellTiter-Glo luminescence, IC50, dose response (AID 1117334); format: functional; conditions: COLO 320
[4] = CellTiter-Glo luminescent dose response of DLD-1 viability loss (AID 1117352); format: functional
[5] = cytotoxicity toward HCT116 cells – cell-based, CellTiter-Glo luminescence, IC50, dose response (AID 1117332); format: functional; conditions: HCT-116
[6] = RKO cell viability reduction, dose response, CellTiter-Glo luminescence (AID 1117322); format: functional
[7] = HCT116 cell viability decrease, GSK3B pretreatment – CellTiter-Glo, IC50, dose response (AID 1117339); format: functional; conditions: HCT-116
[8] = SNU-C1 cell viability reduction, dose response, CellTiter-Glo luminescence (AID 1117323); format: functional, cell-based
[9] = HepG2 cell cytotoxicity, dose response, cytotoxicity control, ATP luminescence, cherry-pick, activator set 2 (AID 1053143); format: functional, cell-based
[10] = molecular target: T1, Corticotropin-releasing factor receptor 2/Corticotropin-releasing factor-binding protein (Homo sapiens, UniProt P24387+Q13324); experiment: activators of CRF receptor 2 with binding protein – uHTS hits, confirmation (AID 602473); format: functional; conditions: read-out: EC50_Mean
T1 sequence (Q13324 whole entry): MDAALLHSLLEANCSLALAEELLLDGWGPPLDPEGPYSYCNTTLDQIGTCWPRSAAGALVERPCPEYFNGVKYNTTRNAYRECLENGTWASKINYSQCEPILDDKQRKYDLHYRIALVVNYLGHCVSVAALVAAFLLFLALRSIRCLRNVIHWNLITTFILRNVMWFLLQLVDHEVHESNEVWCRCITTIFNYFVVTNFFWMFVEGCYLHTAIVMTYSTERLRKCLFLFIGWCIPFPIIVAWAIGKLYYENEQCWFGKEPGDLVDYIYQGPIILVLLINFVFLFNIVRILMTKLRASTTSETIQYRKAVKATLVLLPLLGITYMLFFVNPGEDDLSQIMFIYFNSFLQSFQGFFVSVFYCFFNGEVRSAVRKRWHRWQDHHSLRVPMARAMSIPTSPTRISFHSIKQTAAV
T1 sequence (P24387 whole entry): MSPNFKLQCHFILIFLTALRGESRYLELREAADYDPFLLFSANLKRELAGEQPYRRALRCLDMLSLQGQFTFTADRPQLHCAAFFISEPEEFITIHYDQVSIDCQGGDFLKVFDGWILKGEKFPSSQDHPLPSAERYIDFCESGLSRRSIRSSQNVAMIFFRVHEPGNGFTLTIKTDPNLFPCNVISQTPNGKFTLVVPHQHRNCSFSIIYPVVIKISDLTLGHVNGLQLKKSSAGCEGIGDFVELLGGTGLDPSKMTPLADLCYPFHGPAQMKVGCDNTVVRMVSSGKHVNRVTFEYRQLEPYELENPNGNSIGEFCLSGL

[11] = molecular target: T1, Corticotropin-releasing factor receptor 2/Corticotropin-releasing factor-binding protein; experiment: Dose Response confirmation of uHTS hits for small molecule antagonists of the CRF-binding protein and CRF-R2 receptor complex.; format: functional; conditions: read-out: IC50_Mean
[12] = CRF-BP/CRF-R2 complex antagonists, dose response, cell-based, uHTS hits, 384-well (AID 651639); format: functional, Homo sapiens; conditions: read-out: IC50_Mean
[13] = molecular target: T2, Calpain-2 catalytic subunit (Sus scrofa, UniProt P43367); experiment: pig calpain II inhibitor potency, dose response, biochemical, fluorogenic peptide substrate (AID 1420); format: functional
T2 sequence (P43367 whole entry): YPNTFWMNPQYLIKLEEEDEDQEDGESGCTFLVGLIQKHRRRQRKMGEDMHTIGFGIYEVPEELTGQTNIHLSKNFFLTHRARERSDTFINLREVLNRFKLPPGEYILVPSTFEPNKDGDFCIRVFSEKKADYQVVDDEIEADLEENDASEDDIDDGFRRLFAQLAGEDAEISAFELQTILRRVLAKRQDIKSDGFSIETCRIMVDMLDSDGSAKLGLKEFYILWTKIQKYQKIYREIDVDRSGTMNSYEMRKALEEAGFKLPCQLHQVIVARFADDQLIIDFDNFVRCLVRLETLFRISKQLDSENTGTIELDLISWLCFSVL

[14] = inhibitors of intracellular T. cruzi replication, confirmation, NIH3T3 host cells, beta-gal luminescence (AID 2044); format: functional, cell-based;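 note: intracellular parasites grown in NIH/3T3 mouse fibroblasts as host cells; luminescent beta-galactosidase reporter signal from transgenic T. cruzi replicating inside host cells; inhibitors lower the luminescence signal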
[15] = cytotoxicity toward NIH3T3 fibroblasts, dose response, counter-screen, cell-based, ATP luminescence, mouse fibroblasts (AID 2010); format: functional;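 note: cells exposed to compound for about 90 hours before reading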
fMet-Leu-Phe receptor = molecular target: T3, fMet-Leu-Phe receptor (Homo sapiens, UniProt P21462); experiment: FPR ligands, dose response (AID 519); format: functional
T3 sequence (P21462 whole entry): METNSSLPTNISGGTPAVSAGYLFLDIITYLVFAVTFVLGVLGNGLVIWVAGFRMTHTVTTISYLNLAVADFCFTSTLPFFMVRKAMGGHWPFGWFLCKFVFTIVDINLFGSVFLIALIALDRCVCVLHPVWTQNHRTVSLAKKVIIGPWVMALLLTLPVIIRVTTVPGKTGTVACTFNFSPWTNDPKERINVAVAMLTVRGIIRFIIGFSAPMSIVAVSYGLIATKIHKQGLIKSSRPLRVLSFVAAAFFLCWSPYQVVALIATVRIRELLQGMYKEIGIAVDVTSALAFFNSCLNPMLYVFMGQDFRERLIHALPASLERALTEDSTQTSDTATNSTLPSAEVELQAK

Estrogen receptor = molecular target: T4, Estrogen receptor (Homo sapiens, UniProt P03372);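 note: potency for inhibiting coactivator peptide recruitment to the receptor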
T4 sequence (P03372 whole entry): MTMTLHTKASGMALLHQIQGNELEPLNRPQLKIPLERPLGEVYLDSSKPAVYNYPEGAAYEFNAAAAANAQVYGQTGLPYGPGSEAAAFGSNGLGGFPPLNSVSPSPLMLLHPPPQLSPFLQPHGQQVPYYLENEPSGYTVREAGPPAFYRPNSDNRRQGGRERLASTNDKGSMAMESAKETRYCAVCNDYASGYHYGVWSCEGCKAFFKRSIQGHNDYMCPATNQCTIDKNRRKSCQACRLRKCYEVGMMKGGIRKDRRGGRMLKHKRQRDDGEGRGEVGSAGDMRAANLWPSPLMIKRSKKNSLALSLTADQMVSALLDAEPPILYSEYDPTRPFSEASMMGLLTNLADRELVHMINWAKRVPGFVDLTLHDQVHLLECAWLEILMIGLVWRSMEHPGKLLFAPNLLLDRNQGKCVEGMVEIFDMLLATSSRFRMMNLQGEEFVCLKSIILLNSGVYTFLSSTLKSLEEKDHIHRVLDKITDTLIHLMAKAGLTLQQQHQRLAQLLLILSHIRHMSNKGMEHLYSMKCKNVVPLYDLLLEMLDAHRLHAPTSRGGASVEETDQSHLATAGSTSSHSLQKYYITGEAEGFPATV

[16] = cytotoxicity in OVCAR8 ovarian cancer cells, dose response, PAX8 project, cell-based, plate reader, dry powder samples (AID 743197); format: functional; conditions: OVCAR-8
[17] = IOSE-T80 ovarian epithelial cell cytotoxicity, dose response, cytotoxicity control for PAX8 inhibitor project, plate reader, dry powder samples (AID 743045); format: functional, cell-based
Paired box protein Pax-8 = Paired box protein Pax-8 (Homo sapiens, UniProt Q06710); experiment: inhibitors of PAX8-driven TPO luciferase reporter, dose response, RMG-I cells, cherry-pick (AID 687027); format: functional, cell-based;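 note: luciferase reporter driven by Pax8 target thyroperoxidase promoter measured by SteadyGlo luminescence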
Chain of Paired box protein Pax-8 (Q06710 whole entry): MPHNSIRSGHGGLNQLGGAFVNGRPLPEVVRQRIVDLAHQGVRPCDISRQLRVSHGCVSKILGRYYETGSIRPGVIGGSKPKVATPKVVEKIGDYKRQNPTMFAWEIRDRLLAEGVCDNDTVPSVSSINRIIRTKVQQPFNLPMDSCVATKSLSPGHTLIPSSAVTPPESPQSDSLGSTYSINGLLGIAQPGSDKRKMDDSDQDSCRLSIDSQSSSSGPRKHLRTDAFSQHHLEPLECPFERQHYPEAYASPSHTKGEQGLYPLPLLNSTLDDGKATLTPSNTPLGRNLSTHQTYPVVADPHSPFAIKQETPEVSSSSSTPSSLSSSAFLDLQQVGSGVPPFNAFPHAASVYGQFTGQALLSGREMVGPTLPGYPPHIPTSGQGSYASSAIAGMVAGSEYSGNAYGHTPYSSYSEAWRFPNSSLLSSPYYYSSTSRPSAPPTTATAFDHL

[18] = NIH:OVCAR-3 ovarian cancer cell cytotoxicity, dose response, PAX8 inhibitor project, plate reader, dry powder samples (AID 743044); format: functional, cell-based

Chain of Disintegrin and metalloproteinase domain-containing protein 17 (P78536 whole entry, the tested form may be a part): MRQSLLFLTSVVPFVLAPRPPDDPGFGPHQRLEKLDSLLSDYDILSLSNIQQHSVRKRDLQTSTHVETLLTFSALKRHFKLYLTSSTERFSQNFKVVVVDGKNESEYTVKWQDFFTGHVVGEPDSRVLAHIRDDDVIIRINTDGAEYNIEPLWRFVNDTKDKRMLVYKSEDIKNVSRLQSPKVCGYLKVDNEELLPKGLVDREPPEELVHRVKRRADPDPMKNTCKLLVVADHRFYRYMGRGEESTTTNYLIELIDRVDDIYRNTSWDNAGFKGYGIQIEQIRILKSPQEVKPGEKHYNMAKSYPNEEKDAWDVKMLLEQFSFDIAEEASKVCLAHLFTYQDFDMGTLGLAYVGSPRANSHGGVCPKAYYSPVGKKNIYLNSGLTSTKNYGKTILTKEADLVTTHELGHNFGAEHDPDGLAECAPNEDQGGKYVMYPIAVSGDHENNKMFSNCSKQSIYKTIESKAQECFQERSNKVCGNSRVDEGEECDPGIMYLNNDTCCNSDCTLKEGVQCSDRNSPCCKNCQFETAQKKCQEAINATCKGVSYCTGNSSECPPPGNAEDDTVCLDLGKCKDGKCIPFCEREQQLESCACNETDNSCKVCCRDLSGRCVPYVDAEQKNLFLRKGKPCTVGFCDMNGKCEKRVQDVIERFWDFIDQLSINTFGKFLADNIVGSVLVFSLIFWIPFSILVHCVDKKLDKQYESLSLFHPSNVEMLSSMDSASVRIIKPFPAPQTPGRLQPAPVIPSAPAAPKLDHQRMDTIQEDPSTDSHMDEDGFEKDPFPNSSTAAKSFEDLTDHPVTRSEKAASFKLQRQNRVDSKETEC

For `O=C(CSc1nc2ccccc2c(=O)n1-c1ccccc1Cl)Nc1cccc(S(=O)(=O)N2CCOCC2)c1`, the IC50 [1] was > 69.5 µM (inactive) and the IC50 [2] was > 69.5 µM (inactive).

In the case of `O=C(OCc1ccccc1)c1cccnc1` [BENZYL NICOTINATE], the IC50 [3] is reported as > 20 µM (inactive), the IC50 [4] is reported as > 20 µM (inactive) and the IC50 [5] is reported as > 20 µM (inactive). For the same compound, the IC50 [6] was > 20 µM (inactive), the IC50 [7] was > 20 µM (inactive) and the IC50 [8] was > 20 µM (inactive).

In the case of `O=C(/C=C\c1ccco1)Oc1cccc2cccnc12`, the AC50 [9] is reported as 26 µM (active).

In the case of `COc1cccc(CNc2ccc([N+](=O)[O-])cc2C)c1`, the IC50 [1] is reported as > 69.5 µM (inactive), the EC50 [10] is reported as > 53 µM (inactive) and the IC50 [11] is reported as 9.05 µM (active). The IC50 [12] was 20 µM (active), the IC50 [13] was 41 µM (not active) and the IC50 [2] was 27.4 µM (inactive).

In the case of `CSc1ccc(CN2CCN(Cc3ccc([N+](=O)[O-])cc3)CC2)cc1`, the EC50 [14] is reported as < 0.1 µM (active), the EC50 (cells) is reported as 0.135 µM (active) and the EC50 [15] is reported as > 60 µM (inconclusive).

With `CC(C)CN(CC(C)C)C(=O)CS(=O)(=O)Cc1ccccc1` the Ki (fMet-Leu-Phe receptor) was 8.5 µM (active).

With `Cc1csc2nc(CCNS(=O)(=O)c3ccc4c(c3)OCCO4)cn12` the IC50 (Estrogen receptor) was 17.1 µM (active).

In the case of `NC(=O)c1c(NC(=O)c2cccs2)sc2c1CCCCCC2`, the IC50 (Estrogen receptor) is reported as 25.9 µM (active).

In the case of `O=S(=O)(c1ccccc1F)N1CC[C@H]2[C@H](CO)Nc3ccc(C4=CCCCC4)cc3[C@H]21`, the AC50 [16] is reported as 26.7 µM (active), the AC50 [17] is reported as 32.9 µM (active) and the AC50 (Paired box protein Pax-8) is reported as 6.12 µM (active). The AC50 [18] was 18.4 µM (active).

For `COc1ccccc1Oc1c(C)oc2cc(OC(=O)c3ccco3)ccc2c1=O`, the Ki (fMet-Leu-Phe receptor) was 19.4 µM (inactive).
